Measured values published in the NIST ThermoML archive (doi:10.1021/je034203p).

Tests used:
[1] = 298.15 K, 101.3 kPa, Liquid; for viscosity: Capillary tube (Ostwald / Ubbelohde) method
[2] = xn = mol fraction of the nth substance listed; details: 298.15 K, 101.3 kPa, Liquid; for viscosity: Capillary tube (Ostwald / Ubbelohde) method

ClC(Cl)(Cl)Cl [tetrachloromethane]
[1]
Details	mass density [kg/m3]	viscosity [mPa·s]
–	1586.1	0.9096

CO [methanol]
[1]
Details	mass density [kg/m3]	viscosity [mPa·s]
–	788.1	0.5482

COC(C)=O [methyl ethanoate]
[1]
Details	mass density [kg/m3]	viscosity [mPa·s]
–	923.9	0.3711

CCCO [propan-1-ol]
[1]
Details	mass density [kg/m3]	viscosity [mPa·s]
–	800	1.954

CC(C)O [propan-2-ol]
[1]
Details	mass density [kg/m3]	viscosity [mPa·s]
–	784.3	2.044

CC(C)=O [acetone]
[1]
Details	mass density [kg/m3]	viscosity [mPa·s]
–	780.8	0.3121

CCC(C)=O [butanone]
[1]
Details	mass density [kg/m3]	viscosity [mPa·s]
–	797.4	0.4011

ClC=C(Cl)Cl [trichloroethene] + c1ccccc1
[2]
Details	mass density [kg/m3]	viscosity [mPa·s]
x1 = 0.0997	923.8	0.5937
x1 = 0.1995	981.7	0.584
x1 = 0.2988	1037.2	0.5761
x1 = 0.3987	1094.6	0.5682
x1 = 0.4986	1152.3	0.5621
x1 = 0.5991	1211	0.5573
x1 = 0.6991	1269.8	0.5573
x1 = 0.7989	1330.3	0.5517
x1 = 0.8998	1391.9	0.5499
x1 = 1	1455.7	0.551

CCCCO [butan-1-ol] + ClC(Cl)=C(Cl)Cl
[2], x2 = 0
Details	mass density [kg/m3]	viscosity [mPa·s]
–	806.3	2.538

CCOC(C)=O [ethyl acetate]
[1]
Details	mass density [kg/m3]	viscosity [mPa·s]
–	894	0.4274

c1ccccc1 [benzene] + ClC=C(Cl)Cl
[2], x2 = 0
Details	mass density [kg/m3]	viscosity [mPa·s]
–	869.7	0.608

ClC(Cl)=C(Cl)Cl [tetrachloroethene]
[1]
Details	mass density [kg/m3]	viscosity [mPa·s]
–	1610.2	0.8474

CCO [ethanol]
[1]
Details	mass density [kg/m3]	viscosity [mPa·s]
–	787.4	1.112

ClC(Cl)=C(Cl)Cl [tetrachloroethene] + CCCCO
[2]
Details	mass density [kg/m3]	viscosity [mPa·s]
x1 = 0.0901	885.2	2.255
x1 = 0.1823	964.3	1.986
x1 = 0.2766	1043.5	1.717
x1 = 0.3727	1122.5	1.496
x1 = 0.4713	1201.7	1.314
x1 = 0.5727	1283	1.158
x1 = 0.6759	1364.2	1.045
x1 = 0.7809	1444.6	0.9519
x1 = 0.8891	1526	0.8894
x1 = 1	1610.2	0.8474

ClC=C(Cl)Cl [trichloroethene] + ClC(Cl)(Cl)Cl
[2]
Details	mass density [kg/m3]	viscosity [mPa·s]
x1 = 0.1068	1568.1	0.8568
x1 = 0.212	1552.3	0.8098
x1 = 0.315	1536.3	0.7632
x1 = 0.4171	1520.8	0.7186
x1 = 0.5178	1506.7	0.6826
x1 = 0.6175	1495.3	0.6511
x1 = 0.7152	1484.6	0.6226
x1 = 0.8114	1475	0.5965
x1 = 0.9064	1464.6	0.5727
x1 = 1	1455.7	0.551

CCCCO [butan-1-ol]
[1]
Details	mass density [kg/m3]	viscosity [mPa·s]
–	806.3	2.538

ClC=C(Cl)Cl [trichloroethene] + CCC(C)O
[2]
Details	mass density [kg/m3]	viscosity [mPa·s]
x1 = 0.102	868.5	2.502
x1 = 0.2035	932.3	2.019
x1 = 0.304	996.3	1.641
x1 = 0.4049	1061.2	1.344
x1 = 0.505	1125.4	1.128
x1 = 0.6051	1190.1	0.9463
x1 = 0.7042	1255.7	0.8155
x1 = 0.8033	1322	0.7014
x1 = 0.9014	1388.3	0.6101
x1 = 1	1455.7	0.551

CC(C)O [propan-2-ol] + ClC=C(Cl)Cl
[2], x2 = 0
Details	mass density [kg/m3]	viscosity [mPa·s]
–	784.3	2.044

CCC(C)O (stereo not given) [butan-2-ol] + ClC=C(Cl)Cl
[2], x2 = 0
Details	mass density [kg/m3]	viscosity [mPa·s]
–	804.8	3.103

ClC=C(Cl)Cl [trichloroethene] + CCCO
[2]
Details	mass density [kg/m3]	viscosity [mPa·s]
x1 = 0.0848	864.2	1.705
x1 = 0.1725	928.6	1.486
x1 = 0.2627	992.9	1.281
x1 = 0.3567	1058.3	1.099
x1 = 0.4541	1122.4	0.9476
x1 = 0.5556	1188.3	0.8226
x1 = 0.6604	1254.3	0.7262
x1 = 0.7691	1320.6	0.6463
x1 = 0.8823	1387.5	0.5848
x1 = 1	1455.7	0.551

c1ccccc1 [benzene]
[1]
Details	mass density [kg/m3]	viscosity [mPa·s]
–	869.7	0.608

COC(C)=O [methyl ethanoate] + ClC(Cl)=C(Cl)Cl
[2], x2 = 0
Details	mass density [kg/m3]	viscosity [mPa·s]
–	923.9	0.3711

CO [methanol] + ClC(Cl)=C(Cl)Cl
[2], x2 = 0
Details	mass density [kg/m3]	viscosity [mPa·s]
–	788.1	0.5482

Cc1ccccc1 [toluene]
[1]
Details	mass density [kg/m3]	viscosity [mPa·s]
–	860.5	0.5641

CCCO [propan-1-ol] + ClC(Cl)=C(Cl)Cl
[2], x2 = 0
Details	mass density [kg/m3]	viscosity [mPa·s]
–	800	1.954

ClC(Cl)=C(Cl)Cl [tetrachloroethene] + CCC(C)=O
[2]
Details	mass density [kg/m3]	viscosity [mPa·s]
x1 = 0.0888	875.6	0.4563
x1 = 0.1798	955.1	0.5095
x1 = 0.2732	1034.4	0.5626
x1 = 0.3692	1114.1	0.6147
x1 = 0.4672	1193.9	0.6642
x1 = 0.5688	1275.5	0.7069
x1 = 0.6719	1356.5	0.7447
x1 = 0.7786	1441.7	0.7802
x1 = 0.8873	1524.2	0.8161
x1 = 1	1610.2	0.8474

CCC(C)O (stereo not given) [butan-2-ol]
[1]
Details	mass density [kg/m3]	viscosity [mPa·s]
–	804.8	3.103

ClC=C(Cl)Cl [trichloroethene]
[1]
Details	mass density [kg/m3]	viscosity [mPa·s]
–	1455.7	0.551

CCC(C)=O [butanone] + ClC(Cl)=C(Cl)Cl
[2], x2 = 0
Details	mass density [kg/m3]	viscosity [mPa·s]
–	797.4	0.4011

ClC=C(Cl)Cl [trichloroethene] + Cc1ccccc1
[2]
Details	mass density [kg/m3]	viscosity [mPa·s]
x1 = 0.1166	917.5	0.5592
x1 = 0.2291	975.6	0.5535
x1 = 0.3367	1033	0.5498
x1 = 0.4417	1090.9	0.5452
x1 = 0.5426	1149	0.5432
x1 = 0.64	1210.5	0.5445
x1 = 0.7348	1270.8	0.5454
x1 = 0.8257	1331.5	0.5477
x1 = 0.9147	1393.2	0.5495
x1 = 1	1455.7	0.551

ClC(Cl)=C(Cl)Cl [tetrachloroethene] + CC(C)=O
[2]
Details	mass density [kg/m3]	viscosity [mPa·s]
x1 = 0.0742	862.2	0.3537
x1 = 0.1529	943.8	0.398
x1 = 0.2362	1025.5	0.4442
x1 = 0.3247	1107.7	0.4942
x1 = 0.4192	1189.6	0.5459
x1 = 0.5201	1272.3	0.6021
x1 = 0.6279	1356.2	0.6581
x1 = 0.7428	1440.3	0.7167
x1 = 0.8671	1524.6	0.7802
x1 = 1	1610.2	0.8474

ClC(Cl)=C(Cl)Cl [tetrachloroethene] + ClC(Cl)(Cl)Cl
[2]
Details	mass density [kg/m3]	viscosity [mPa·s]
x1 = 0.0946	1583.5	0.8943
x1 = 0.1904	1582.4	0.8803
x1 = 0.2873	1582	0.8675
x1 = 0.3853	1582.5	0.8569
x1 = 0.4845	1583.8	0.8504
x1 = 0.5859	1587.2	0.8452
x1 = 0.6876	1590.1	0.8407
x1 = 0.7904	1596.8	0.8422
x1 = 0.8946	1603.2	0.8445
x1 = 1	1610.2	0.8474

Cc1ccccc1 [toluene] + ClC(Cl)=C(Cl)Cl
[2], x2 = 0
Details	mass density [kg/m3]	viscosity [mPa·s]
–	860.5	0.5641

CCO [ethanol] + ClC=C(Cl)Cl
[2], x2 = 0
Details	mass density [kg/m3]	viscosity [mPa·s]
–	787.4	1.112
